Experimental data from PMC10878397, “Development of Potent Dual BET/HDAC Inhibitors via Pharmacophore Merging and Structure-Guided Optimization” (ACS Chemical Biology, 2024).
“And” between values parts separate entries of the source, which are not always exact repeats. Equal values may be shown once. Read-outs that look alike come from different tables or passages of the source.

Key:
[1] = test system: HCC2429 cells; assay: CellTiter-Glo cell viability assay; type: cell-based; conditions: Homo sapiens, HCC2429, 72 h; treatment for 3 days
Experimental: (§1) PDAC cell line PaTu8988T was obtained from ATCC and cultured in Dulbecco’s modified Eagle’s medium (DMEM) containing 10% FBS, 25 mM glucose, […], 1 mM sodium pyruvate, and 1% penicillin–streptomycin. Nut midline carcinoma cell line HCC2429 was kindly provided by Lead Discovery Center GmbH (Dortmund, Germany) and was cultured in RPMI1640 medium containing 10% FBS, 2 mM L-glutamine, and 1% penicillin–streptomycin. Cell line PaTu8988T was authenticated using the Multiplex human Cell line Authentication Test (MCA) by Multiplexion GmbH, and cell line HCC2429 was authenticated using short tandem repeat (STR) profiling.
(§2) The assays were performed using Promega’s CellTiter-Glo Luminescent Cell Viability Assay kit (Cat. #G7571). First, compounds dissolved in DMSO were printed in 96-well plates (Corning) by using a Tecan D300e digital dispenser. Then, cells were seeded into the compound-printed plates using a Thermo Multidrop reagent dispenser. 72 h later, one volume of diluted CellTiter-Glo reagent (1:4 dilution with PBS) was added to individual wells by using the Thermo Multidrop reagent dispenser again. Plates were shaken for 2 min and incubated for 10 min in the dark. Luminescent signals were read by using a Tecan Spark Multimode Microplate Reader. The values were normalized to the DMSO control wells and presented as a percentage of cell viability. Dose–response curves were drawn with GraphPad Prism 8.

[2] = test system: PaTu8988T cells; assay: CellTiter-Glo cell viability assay; type: cell-based; conditions: Homo sapiens, PaTu 8988t, 72 h; treatment for 3 days
Experimental: as §1, §2

[3] = biological target: T1, BRD4 BD1 (Homo sapiens, UniProt O60885); assay: NanoBRET target engagement assay (HEK293T); type: cell-based; set-up: BRD4 bromodomains and full-length HDACs were obtained as plasmids cloned in-frame with a terminal NanoLuc fusion; host or cells: HEK293T; conditions: intact cells
Experimental: (§3) The assay was performed as described previously.[17],[59] In brief, BRD4 bromodomains and full-length HDACs were obtained as plasmids cloned in-frame with a terminal NanoLuc fusion (Promega). Plasmids were transfected into HEK293T cells using FuGENE HD (Promega, E2312), and proteins were allowed to express for 20 h. Serially diluted inhibitor and the corresponding NanoBRET Tracer (Promega) at a concentration determined previously as the tracer KD, app were pipetted into white 384-well plates (Greiner #781207) for BRD assays or white 96-well plates (Corning #3600) for HDAC using an Echo acoustic dispenser (Labcyte). The corresponding protein-transfected cells were added and reseeded at a density of 2 × 10^5 cells/mL after trypsinization and resuspended in Opti-MEM without phenol red (Life Technologies). The system was allowed to equilibrate for 2 h at 37 °C/5% CO2 prior to BRET measurements. To measure BRET, NanoBRET NanoGlo substrate + Extracellular NanoLuc Inhibitor (Promega, N2540) was added as per the manufacturer’s protocol, and filtered luminescence was measured on a PHERAstar plate reader (BMG Labtech) equipped with a luminescence filter pair (450 nm BP filter (donor) and 610 nm LP filter (acceptor)). For lysed-mode NanoBRET experiments, digitonin (Promega, #G9441) was added as per the manufacturer’s instructions to a final concentration of […].

[4] = biological target: T2, BRD4 BD2 (Homo sapiens, UniProt O60885); assay: NanoBRET target engagement assay (HEK293T); type: cell-based; set-up: BRD4 bromodomains and full-length HDACs were obtained as plasmids cloned in-frame with a terminal NanoLuc fusion; host or cells: HEK293T; conditions: intact cells
Experimental: as §3

[5] = biological target: HDAC1 (Homo sapiens, UniProt Q13547); assay: NanoBRET target engagement assay (HEK293T); type: cell-based; set-up: BRD4 bromodomains and full-length HDACs were obtained as plasmids cloned in-frame with a terminal NanoLuc fusion; host or cells: HEK293T
Chain of HDAC1 (Q13547 whole entry, the tested form may be a part): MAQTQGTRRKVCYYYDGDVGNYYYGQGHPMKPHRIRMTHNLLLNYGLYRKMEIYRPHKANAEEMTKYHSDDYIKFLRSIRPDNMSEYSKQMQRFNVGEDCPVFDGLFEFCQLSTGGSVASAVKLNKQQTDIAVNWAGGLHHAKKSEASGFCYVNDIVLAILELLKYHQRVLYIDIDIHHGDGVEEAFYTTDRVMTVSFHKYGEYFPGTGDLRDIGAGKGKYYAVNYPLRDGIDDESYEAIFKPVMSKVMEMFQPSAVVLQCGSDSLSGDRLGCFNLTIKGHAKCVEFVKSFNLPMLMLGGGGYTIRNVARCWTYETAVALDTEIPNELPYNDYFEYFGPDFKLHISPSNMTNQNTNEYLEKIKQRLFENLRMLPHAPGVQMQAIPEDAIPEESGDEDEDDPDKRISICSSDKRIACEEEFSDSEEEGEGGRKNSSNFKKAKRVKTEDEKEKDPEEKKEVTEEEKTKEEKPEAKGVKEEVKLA
Experimental: (§4) The assay was performed as described previously.[17],[59] In brief, BRD4 bromodomains and full-length HDACs were obtained as plasmids cloned in-frame with a terminal NanoLuc fusion (Promega). Plasmids were transfected into HEK293T cells using FuGENE HD (Promega, E2312), and proteins were allowed to express for 20 h. […] The corresponding protein-transfected cells were added and reseeded at a density of 2 × 10^5 cells/mL after trypsinization and resuspended in Opti-MEM without phenol red (Life Technologies). The system was allowed to equilibrate for 2 h at 37 °C/5% CO2 prior to BRET measurements. […] For lysed-mode NanoBRET experiments, digitonin (Promega, #G9441) was added as per the manufacturer’s instructions to a final concentration of […].

[6] = biological target: HDAC2 (Homo sapiens, UniProt Q92769); assay: NanoBRET target engagement assay (HEK293T); type: cell-based; set-up: BRD4 bromodomains and full-length HDACs were obtained as plasmids cloned in-frame with a terminal NanoLuc fusion; host or cells: HEK293T; conditions: intact cells
Chain of HDAC2 (Q92769 whole entry, the tested form may be a part): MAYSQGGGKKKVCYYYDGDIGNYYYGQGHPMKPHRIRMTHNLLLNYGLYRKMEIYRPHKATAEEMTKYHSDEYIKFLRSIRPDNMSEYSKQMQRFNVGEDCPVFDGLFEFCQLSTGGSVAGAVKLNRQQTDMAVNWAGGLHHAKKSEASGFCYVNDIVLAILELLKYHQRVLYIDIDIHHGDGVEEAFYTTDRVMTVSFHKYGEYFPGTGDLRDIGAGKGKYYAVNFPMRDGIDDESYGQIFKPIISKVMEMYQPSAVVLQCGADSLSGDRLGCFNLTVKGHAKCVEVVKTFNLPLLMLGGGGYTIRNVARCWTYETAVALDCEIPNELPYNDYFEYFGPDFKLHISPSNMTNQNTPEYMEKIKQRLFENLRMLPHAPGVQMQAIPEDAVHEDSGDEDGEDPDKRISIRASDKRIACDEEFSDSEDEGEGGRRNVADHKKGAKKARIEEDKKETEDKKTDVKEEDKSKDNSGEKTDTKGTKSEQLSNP
Experimental: as §4

[7] = biological target: HDAC3 (Homo sapiens, UniProt O15379); assay: NanoBRET target engagement assay (HEK293T); type: cell-based; set-up: BRD4 bromodomains and full-length HDACs were obtained as plasmids cloned in-frame with a terminal NanoLuc fusion; host or cells: HEK293T; conditions: intact cells
Chain of HDAC3 (O15379 whole entry, the tested form may be a part): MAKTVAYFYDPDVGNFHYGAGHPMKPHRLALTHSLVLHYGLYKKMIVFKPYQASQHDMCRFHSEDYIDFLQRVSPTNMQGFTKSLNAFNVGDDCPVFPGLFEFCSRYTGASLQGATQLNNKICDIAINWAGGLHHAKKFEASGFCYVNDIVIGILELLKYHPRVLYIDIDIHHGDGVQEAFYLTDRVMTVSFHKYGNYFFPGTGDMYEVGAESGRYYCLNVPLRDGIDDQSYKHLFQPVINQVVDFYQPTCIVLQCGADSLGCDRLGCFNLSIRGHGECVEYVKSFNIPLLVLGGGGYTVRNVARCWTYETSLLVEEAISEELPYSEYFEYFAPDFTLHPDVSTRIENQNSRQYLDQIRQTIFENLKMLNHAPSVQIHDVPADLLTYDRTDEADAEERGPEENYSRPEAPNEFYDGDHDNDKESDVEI
Experimental: as §4

[8] = biological target: BRD4 bromodomains (Homo sapiens, UniProt O60885); assay: NanoBRET target engagement assay, both bromodomains; type: cell-based; conditions: NanoBRET
Experimental: as §3

[9] = biological target: T1, BRD4 BD1; assay: DSF thermal shift assay; type: binding; set-up: purchased in-house (SGC Frankfurt recombinant bromodomain DSF panel)
Experimental: (§5) The effects of inhibitor binding on the apparent melting temperature of recombinant bromodomains were determined by DSF in a 96-well plate (Starlab) at a protein concentration of 2 μM with 10 μΜ compound in buffer containing 25 mM HEPES, pH 7.5, 150 mM NaCl, and 0.5 mM TCEP. […] Protein unfolding profiles were recorded using an MX3005P real-time qPCR instrument (Agilent; excitation/emission filters = 492/610 nm) while increasing the temperature from 25 to 95 °C at a heating rate of 3 °C/min. Tm values were calculated after fitting the fluorescence curves to the Boltzmann equation. Differences in melting temperature upon compound binding are given as ΔTm = Tm (protein with inhibitor) – Tm (protein with DMSO control). Measurements were performed in triplicates.

[10] = biological target: T2, BRD4 BD2; assay: DSF thermal shift assay; type: binding; set-up: purchased in-house (SGC Frankfurt recombinant bromodomain DSF panel)
Experimental: as §5

[11] = 10 μM compound, 2 μM protein, read-out: DSF ΔTm BRD4 BD1
[12] = 10 μM compound, 2 μM protein, read-out: DSF ΔTm BRD4 BD2

Row | SMILES | IC50 [1] [nM] | IC50 [2] [nM] | EC50 [3] [nM] | EC50 [4] [nM] | EC50 ([5]; intact cells) | EC50 ([5]; lysed cells (digitonin)) [nM] | EC50 [6] | EC50 [7] [nM] | fold reduced binding to BRD4 compared with NB500 [8] | ΔTm at 10 µM ([9]; read-out: DSF ΔTm BRD4 BD1, 10 μM compound, 2 μM protein) [°C] | ΔTm at 10 µM ([10]; read-out: DSF ΔTm BRD4 BD2, 10 μM compound, 2 μM protein) [°C] | DSF ΔTm BRD4 BD1 ([9]; 10 μM compound, 2 μM protein) [K] | ΔTm at 10 µM [9, 11] [°C] | ΔTm at 10 µM [10, 12] [°C]
1 | Cn1cc(-c2ccc(C(=O)Nc3cc(-c4cccs4)ccc3N)nc2)c2cc[nH]c2c1=O [NB514] | 550 ± 60 | 4100 ± 700 | 290 ± 50 | 180 ± 40 | 140 ± 50 nM | 22 ± 8 | 58 nM and 60 nM | 11400 ± 6900 | – | – | – | – | – | –
2 | Cn1cc(-c2ccc(C(=O)Nc3ccccc3N)nn2)c2cc[nH]c2c1=O [NB501] | 540 ± 60 | 8500 ± 1300 | 390 ± 20 | 290 ± 120 | 16800 ± 6700 nM | – | 4600 ± 600 nM | – | about 2 fold | 2.9 ± 0.3 | 3.6 ± 0.2 | – | – | –
3 | Cn1cc(-c2ccc(C(=O)Nc3ccc(F)cc3N)nc2)c2cc[nH]c2c1=O [NB507] | 240 ± 20 | 5200 ± 900 | 340 ± 100 | 100 ± 10 | 36300 nM and 36000 nM | 8200 ± 2100 | 14200 ± 4500 nM | > 50000 | – | – | – | – | – | –
4 | Cc1cc(/N=N/c2ccc(C(=O)Nc3ccccc3N)cc2)c(N)cc1O [NB161] | – | – | – | – | 10800 ± 5100 nM | – | > 50000 nM | – | – | – | – | 5.2 ± 0.3 | 5.3 | ~3
5 | Cn1cc(-c2ccc(C(=O)Nc3cc(-c4ccco4)ccc3N)nc2)c2cc[nH]c2c1=O [NB513] | 320 ± 40 | 2600 ± 300 | 370 ± 50 | 310 ± 50 | 1300 ± 1000 nM | – | 2900 ± 1700 nM | – | – | – | – | – | – | –
6 | Cn1cc(C(=O)Nc2ccc(C(=O)Nc3ccccc3N)cc2)c2cc[nH]c2c1=O [NB480] | – | – | 2600 ± 100 | 2900 ± 200 | 2300 ± 600 nM | – | 3700 ± 2400 nM | – | – | – | – | – | 1.9 ± 0.2 | 1.9 ± 0.3
7 | COc1cc(C(=O)Nc2ccccc2N)ccc1-c1cn(C)c(=O)c2[nH]ccc12 [NB470] | – | – | 390 ± 60 | 230 ± 70 | > 50000 nM | > 50000 | > 50000 nM | – | – | – | – | – | 3.8 ± 0.1 | 4.3 ± 0.3
